# Data as given in patent publication US12077503B2, “Substituted cyclic amides and their use as herbicides” (FMC CORPORATION, priority 2015, dated 2024).
# Columns and labels:
# Experiment in all cases: Test C preemergence
# Assay type in all cases: in vivo
# [1] = system: barnyardgrass (Echinochloa crus-galli); details: for Plant response rating, Barnyardgrass: scale 0 to 100, 0 no effect, 100 complete control
# Summary of the method: (§1)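 Preemergence application to seeds in loam/sand soil, or foliar (postemergence) application to plants 2–18 cm tall in peat moss/vermiculite medium; surfactant-containing non-phytotoxic solvent vehicle; greenhouse. Visual injury vs controls at 13–15 d; 0 = no effect, 100 = complete control.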
# [2] = system: nutsedge, yellow (yellow nutsedge, Cyperus esculentus); details: for Plant response rating, Nutsedge, Yellow: scale 0 to 100, 0 no effect, 100 complete control
# Summary of the method: as §1
# [3] = system: foxtail, giant (giant foxtail, Setaria faberii); details: for Plant response rating, Foxtail, Giant: scale 0 to 100, 0 no effect, 100 complete control
# Summary of the method: as §1
# [4] = system: ragweed (common ragweed, Ambrosia elatior); details: for Plant response rating, Ragweed: scale 0 to 100, 0 no effect, 100 complete control
# Summary of the method: as §1
# [5] = system: crabgrass, large (large crabgrass, Digitaria sanguinalis); details: for Plant response rating, Crabgrass, Large: scale 0 to 100, 0 no effect, 100 complete control
# Summary of the method: as §1
# [6] = system: wheat (winter wheat, Triticum aestivum); details: for Plant response rating, Wheat: scale 0 to 100, 0 no effect, 100 complete control
# Summary of the method: as §1
# corn (Zea mays) = details: for Plant response rating, Corn: scale 0 to 100, 0 no effect, 100 complete control
# Summary of the method: as §1
# [7] = system: oilseed rape (Brassica napus); details: for Plant response rating, Oilseed Rape: scale 0 to 100, 0 no effect, 100 complete control
# Summary of the method: as §1
# soybean (Glycine max) = details: for Plant response rating, Soybean: scale 0 to 100, 0 no effect, 100 complete control
# Summary of the method: as §1
# [8] = system: morningglory (Ipomoea coccinea); details: for Plant response rating, Morningglory: scale 0 to 100, 0 no effect, 100 complete control
# Summary of the method: as §1
# [9] = system: pigweed (Amaranthus retroflexus); details: for Plant response rating, Pigweed: scale 0 to 100, 0 no effect, 100 complete control
# Summary of the method: as §1
# [10] = system: waterhemp (common waterhemp, Amaranthus rudis); details: for Plant response rating, Waterhemp: scale 0 to 100, 0 no effect, 100 complete control
# Summary of the method: as §1
# [11] = system: Galium (catchweed bedstraw, Galium aparine); details: for Plant response rating, Galium: scale 0 to 100, 0 no effect, 100 complete control
# Summary of the method: as §1
# [12] = system: ryegrass, Italian (Italian ryegrass, Lolium multiflorum); details: for Plant response rating, Ryegrass, Italian: scale 0 to 100, 0 no effect, 100 complete control
# Summary of the method: as §1
# [13] = system: velvetleaf (Abutilon theophrasti); details: for Plant response rating, Velvetleaf: scale 0 to 100, 0 no effect, 100 complete control
# Summary of the method: as §1
# [14] = system: lambsquarters (Chenopodium album); details: for Plant response rating, Lambsquarters: scale 0 to 100, 0 no effect, 100 complete control
# Summary of the method: as §1
# [15] = system: blackgrass (Alopecurus myosuroides); details: for Plant response rating, Blackgrass: scale 0 to 100, 0 no effect, 100 complete control
# Summary of the method: as §1
# [16] = system: johnsongrass (Sorghum halepense); details: for Plant response rating, Johnsongrass: scale 0 to 100, 0 no effect, 100 complete control
# Summary of the method: as §1
# [17] = 31 g ai/ha, 0 is no effect, 100 is complete control
smiles,measurement,setting,value
CN1CC(c2cccc(OC(F)F)c2)C(C(=O)Nc2ccc(F)cc2F)C1=O (stereo not drawn) [Compound 617],"Plant response rating (scale of 0 to 100), Barnyardgrass",[1]; [17],85
same,"Plant response rating, Barnyardgrass",[1]; 62 g ai/ha,90
same,"Plant response rating, Barnyardgrass",[1]; 125 g ai/ha,95
same,"Plant response rating, Barnyardgrass",[1]; 250 g ai/ha,95
same,"Plant response rating (scale of 0 to 100), Nutsedge, Yellow",[2]; [17],0
same,"Plant response rating, Nutsedge, Yellow",[2]; 62 g ai/ha,0
same,"Plant response rating, Nutsedge, Yellow",[2]; 125 g ai/ha,20
same,"Plant response rating, Nutsedge, Yellow",[2]; 250 g ai/ha,35
same,"Plant response rating (scale of 0 to 100), Foxtail, Giant",[3]; [17],90
same,"Plant response rating, Foxtail, Giant",[3]; 62 g ai/ha,90
same,"Plant response rating, Foxtail, Giant",[3]; 125 g ai/ha,95
same,"Plant response rating, Foxtail, Giant",[3]; 250 g ai/ha,98
same,"Plant response rating (scale of 0 to 100), Ragweed",[4]; [17],10
same,"Plant response rating, Ragweed",[4]; 62 g ai/ha,10
same,"Plant response rating, Ragweed",[4]; 125 g ai/ha,40
same,"Plant response rating, Ragweed",[4]; 250 g ai/ha,70
same,"Plant response rating (scale of 0 to 100), Crabgrass, Large",[5]; [17],95
same,"Plant response rating, Crabgrass, Large",[5]; 62 g ai/ha,95
same,"Plant response rating, Crabgrass, Large",[5]; 125 g ai/ha,100
same,"Plant response rating, Crabgrass, Large",[5]; 250 g ai/ha,100
same,"Plant response rating (scale of 0 to 100), Wheat",[6]; [17],0
same,"Plant response rating, Wheat",[6]; 62 g ai/ha,15
same,"Plant response rating, Wheat",[6]; 125 g ai/ha,45
same,"Plant response rating, Wheat",[6]; 250 g ai/ha,80
same,"Plant response rating (scale of 0 to 100), Corn",corn (Zea mays); [17],0
same,"Plant response rating, Corn",corn (Zea mays); 62 g ai/ha,40
same,"Plant response rating, Corn",corn (Zea mays); 125 g ai/ha,75
same,"Plant response rating, Corn",corn (Zea mays); 250 g ai/ha,80
same,"Plant response rating (scale of 0 to 100), Oilseed Rape",[7]; [17],30
same,"Plant response rating, Oilseed Rape",[7]; 62 g ai/ha,85
same,"Plant response rating, Oilseed Rape",[7]; 125 g ai/ha,90
same,"Plant response rating, Oilseed Rape",[7]; 250 g ai/ha,90
same,"Plant response rating (scale of 0 to 100), Soybean",soybean (Glycine max); [17],0
same,"Plant response rating, Soybean",soybean (Glycine max); 62 g ai/ha,10
same,"Plant response rating, Soybean",soybean (Glycine max); 125 g ai/ha,0
same,"Plant response rating, Soybean",soybean (Glycine max); 250 g ai/ha,20
same,"Plant response rating (scale of 0 to 100), Morningglory",[8]; [17],0
same,"Plant response rating, Morningglory",[8]; 62 g ai/ha,0
same,"Plant response rating, Morningglory",[8]; 125 g ai/ha,25
same,"Plant response rating, Morningglory",[8]; 250 g ai/ha,40
same,"Plant response rating (scale of 0 to 100), Pigweed",[9]; [17],10
same,"Plant response rating, Pigweed",[9]; 62 g ai/ha,20
same,"Plant response rating, Pigweed",[9]; 125 g ai/ha,45
same,"Plant response rating, Pigweed",[9]; 250 g ai/ha,75
same,"Plant response rating (scale of 0 to 100), Waterhemp",[10]; [17],20
same,"Plant response rating, Waterhemp",[10]; 62 g ai/ha,25
same,"Plant response rating, Waterhemp",[10]; 125 g ai/ha,70
same,"Plant response rating, Waterhemp",[10]; 250 g ai/ha,80
same,"Plant response rating (scale of 0 to 100), Galium",[11]; [17],0
same,"Plant response rating, Galium",[11]; 62 g ai/ha,85
same,"Plant response rating, Galium",[11]; 125 g ai/ha,85
same,"Plant response rating, Galium",[11]; 250 g ai/ha,85
same,"Plant response rating (scale of 0 to 100), Ryegrass, Italian",[12]; [17],10
same,"Plant response rating, Ryegrass, Italian",[12]; 62 g ai/ha,45
same,"Plant response rating, Ryegrass, Italian",[12]; 125 g ai/ha,50
same,"Plant response rating, Ryegrass, Italian",[12]; 250 g ai/ha,90
same,"Plant response rating (scale of 0 to 100), Velvetleaf",[13]; [17],10
same,"Plant response rating, Velvetleaf",[13]; 62 g ai/ha,10
same,"Plant response rating, Velvetleaf",[13]; 125 g ai/ha,20
same,"Plant response rating, Velvetleaf",[13]; 250 g ai/ha,45
same,"Plant response rating (scale of 0 to 100), Lambsquarters",[14]; [17],30
same,"Plant response rating, Lambsquarters",[14]; 62 g ai/ha,55
same,"Plant response rating, Lambsquarters",[14]; 125 g ai/ha,70
same,"Plant response rating, Lambsquarters",[14]; 250 g ai/ha,80
same,"Plant response rating (scale of 0 to 100), Blackgrass",[15]; [17],20
same,"Plant response rating, Blackgrass",[15]; 62 g ai/ha,20
same,"Plant response rating, Blackgrass",[15]; 125 g ai/ha,85
same,"Plant response rating, Blackgrass",[15]; 250 g ai/ha,90
same,"Plant response rating (scale of 0 to 100), Johnsongrass",[16]; [17],25
same,"Plant response rating, Johnsongrass",[16]; 62 g ai/ha,30
same,"Plant response rating, Johnsongrass",[16]; 125 g ai/ha,65
same,"Plant response rating, Johnsongrass",[16]; 250 g ai/ha,75
